Where a name gives a salt, the structure may show the parent alone.
target: T1, human B1 (Homo sapiens, UniProt P46663); test: Calcium flux assay for Bradykinin B1 antagonist, CHO-K1 cell line expressing human B1; format: cell-based; conditions: CHO-K1 cells expressing human B1, agonist Lys-(Des-Arg)-Bradykinin, read-out: Potency (IC50 value against human B1)
T1 construct: host or cells: CHO-K1
T1 sequence (P46663 1-353): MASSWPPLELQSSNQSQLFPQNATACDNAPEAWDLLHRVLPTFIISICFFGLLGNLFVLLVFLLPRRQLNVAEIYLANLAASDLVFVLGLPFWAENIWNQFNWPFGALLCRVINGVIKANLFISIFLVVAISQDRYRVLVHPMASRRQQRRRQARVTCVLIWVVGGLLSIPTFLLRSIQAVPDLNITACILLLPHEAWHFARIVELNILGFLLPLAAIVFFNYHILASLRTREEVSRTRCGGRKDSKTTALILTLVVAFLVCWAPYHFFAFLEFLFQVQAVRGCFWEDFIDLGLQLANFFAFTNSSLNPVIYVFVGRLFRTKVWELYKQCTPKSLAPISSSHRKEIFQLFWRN
Method in brief: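 CHO-K1 cells expressing human B1, loaded with 5 μM Fluo-4AM (2 h, 37° C) in HEPES buffer pH 7.4 with probenecid and 0.1% BSA, were preincubated 30 min at 25° C with compound (8 concentrations, triplicate, 1% DMSO) before B1 agonist addition. Ca2+ fluorescence monitored at 538 nm; background-normalized integrated values plotted against log antagonist concentration.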

| SMILES | IC50 |
| --- | --- |
| COc1cc(C)c(S(=O)(=O)N(Cc2nc(C(=O)N(C)C3CCC(N4CCN(C)CC4)CC3)co2)C2CC2)c(C)c1 (stereo not shown) [Ex 243, 2-({Cyclopropyl[(4-methoxy-2,6-dimethylphenyl)sulfonyl]amino}methyl)-N-methyl-N-[4-(4-methylpiperazin-1-yl)cyclohexyl]-1,3-oxazole-4-carboxamide trifluoroacetate] | 10 to 100 nM |
| COc1cc(C)c(S(=O)(=O)N(Cc2cnc(C(=O)N3CCN(CC4CCN(C)CC4)CC3)o2)C2CC2)c(C)c1 [Ex 245, N-Cyclopropyl-4-methoxy-2,6-dimethyl-N-{[2-({4-[(1-methylpiperidin-4-yl)methyl]piperazin-1-yl}carbonyl)-1,3-oxazol-5-yl]methyl}benzenesulfonamide] | 100 to 1000 nM |
| COc1cc(C)c(S(=O)(=O)N(Cc2nc(C(=O)N3CCC(O)(COCCN(C)C)CC3)co2)C2CC2)c(C)c1 [Ex 246, N-Cyclopropyl-N-({4-[(4-{[2-(dimethylamino)ethoxy]methyl}-4-hydroxypiperidin-1-yl)carbonyl]-1,3-oxazol-2-yl}methyl)-4-methoxy-2,6-dimethylbenzenesulfonamide trifluoroacetate] | 10 to 100 nM |
| COc1cc(C)c(S(=O)(=O)N(Cc2nc(C(=O)N3CCC(OC4CCN(C)C4)CC3)co2)C2CC2)c(C)c1 (stereo not shown) [Ex 247, N-Cyclopropyl-4-methoxy-2,6-dimethyl-N-{[4-({4-[(1-methylpyrrolidin-3-yl)oxy]piperidin-1-yl}carbonyl)-1,3-oxazol-2-yl]methyl}benzenesulfonamide] | 100 to 1000 nM |
| COc1cc(C)c(S(=O)(=O)N(Cc2nc(C(=O)N3CCC(OC4CCCN(C)C4)CC3)co2)C2CC2)c(C)c1 (stereo not shown) [Ex 248, N-Cyclopropyl-4-methoxy-2,6-dimethyl-N-{[4-({4-[(1-methylpiperidin-3-yl)oxy]piperidin-1-yl}carbonyl)-1,3-oxazol-2-yl]methyl}benzenesulfonamide trifluoroacetate] | 10 to 100 nM |
| COc1cc(C)c(S(=O)(=O)N(Cc2nc(C(=O)N3CCN(Cc4c[nH]cn4)CC3)co2)C2CC2)c(C)c1 [Ex 249, N-Cyclopropyl-N-[(4-{[4-(1H-imidazol-4-ylmethyl)piperazin-1-yl]carbonyl}-1,3-oxazol-2-yl)methyl]-4-methoxy-2,6-dimethylbenzenesulfonamide] | 10 to 100 nM |
| COc1cc(C)c(S(=O)(=O)N(Cc2nc(C(=O)N3CCN(Cc4cncn4C)CC3)co2)C2CC2)c(C)c1 [Ex 251, N-Cyclopropyl-4-methoxy-2,6-dimethyl-N-{[4-({4-[(1-methyl-1H-imidazol-5-yl)methyl]piperazin-1-yl}carbonyl)-1,3-oxazol-2-yl]methyl}benzenesulfonamide] | 100 to 1000 nM |
| COc1cc(C)c(S(=O)(=O)N(Cc2nc(C(=O)N3CCN(Cc4c[nH]nc4C)CC3)co2)C2CC2)c(C)c1 [Ex 255, N-Cyclopropyl-4-methoxy-2,6-dimethyl-N-{[4-({4-[(3-methyl-1H-pyrazol-4-yl)methyl]piperazin-1-yl}carbonyl)-1,3-oxazol-2-yl]methyl}benzenesulfonamide] | 10 to 100 nM |
| COc1cc(C)c(S(=O)(=O)N(Cc2nc(C(=O)N3CCN(Cc4ccnc(N5CCCC5)c4)CC3)co2)C2CC2)c(C)c1 [Ex 256, N-Cyclopropyl-4-methoxy-2,6-dimethyl-N-{[4-({4-[(2-pyrrolidin-1-ylpyridin-4-yl)methyl]piperazin-1-yl}carbonyl)-1,3-oxazol-2-yl]methyl}benzenesulfonamide] | 100 to 1000 nM |
| COc1cc(C)c(S(=O)(=O)N(Cc2nc(C(=O)N(C)CCOc3ccncc3)co2)C2CC2)c(C)c1 [Ex 257, 2-({Cyclopropyl[(4-methoxy-2,6-dimethylphenyl)sulfonyl]amino}methyl)-N-methyl-N-[2-(pyridin-4-yloxy)ethyl]-1,3-oxazole-4-carboxamide] | 100 to 1000 nM |
| COc1cc(C)c(S(=O)(=O)N(C)Cc2nnc(C(=O)N3CCN(CCCN4CCCC4)CC3)o2)c(C)c1 [Ex 259, 4-Methoxy-N,2,6-trimethyl-N-[(5-{[4-(3-pyrrolidin-1-ylpropyl)piperazin-1-yl]carbonyl}-1,3,4-oxadiazol-2-yl)methyl]benzenesulfonamide] | 10 to 100 nM |
| COc1cc(C)c(S(=O)(=O)N(C)Cc2nnc(C(=O)N3CCN(Cc4ccc(OC)nc4)CC3)o2)c(C)c1 [Ex 260, 4-Methoxy-N-{[5-({4-[(6-methoxypyridin-3-yl)methyl]piperazin-1-yl}carbonyl)-1,3,4-oxadiazol-2-yl]methyl}-N,2,6-trimethylbenzenesulfonamide trifluoroacetate] | 10 to 100 nM |
| COc1cc(C)c(S(=O)(=O)N(C)Cc2nnc(C(=O)N3CCN(Cc4ccc(C(F)(F)F)nc4)CC3)o2)c(C)c1 [Ex 262, 4-Methoxy-N,2,6-trimethyl-N-({5-[(4-{[6-(trifluoromethyl)pyridin-3-yl]methyl}piperazin-1-yl)carbonyl]-1,3,4-oxadiazol-2-yl}methyl)benzenesulfonamide trifluoroacetate] | 100 to 1000 nM |
| COc1cc(C)c(S(=O)(=O)N(C)Cc2nnc(C(=O)N3CCN(CC4CCN(C(=O)OC(C)(C)C)CC4)CC3)o2)c(C)c1 [Ex 263, tert-Butyl 4-[(4-{[5-({[(4-methoxy-2,6-dimethylphenyl)sulfonyl](methyl)amino}methyl)-1,3,4-oxadiazol-2-yl]carbonyl}piperazin-1-yl)methyl]piperidine-1-carboxylate] | 100 to 1000 nM |
| COc1cc(C)c(S(=O)(=O)N(C)Cc2nnc(C(=O)N3CCN(CC4CCN(C(C)C)CC4)CC3)o2)c(C)c1 [Ex 264, 4-Methoxy-N,2,6-trimethyl-N-({5-[(4-{[1-(1-methylethyl)piperidin-4-yl]methyl}piperazin-1-yl)carbonyl]-1,3,4-oxadiazol-2-yl}methyl)benzenesulfonamide trifluoroacetate] | 100 to 1000 nM |
| COc1cc(C)c(S(=O)(=O)N(C)Cc2nnc(C(=O)N3CCN(CC4CCN(C5CCC5)CC4)CC3)o2)c(C)c1 [Ex 265, N-{[5-({4-[(1-Cyclobutylpiperidin-4-yl)methyl]piperazin-1-yl}carbonyl)-1,3,4-oxadiazol-2-yl]methyl}-4-methoxy-N,2,6-trimethylbenzenesulfonamide trifluoroacetate] | 100 to 1000 nM |
| COc1cc(C)c(S(=O)(=O)N(C)Cc2nnc(C(=O)N3CCN(CC4CCN(CC(C)(C)O)CC4)CC3)o2)c(C)c1 [Ex 266, N-({5-[(4-{[1-(2-Hydroxy-2-methylpropyl)piperidin-4-yl]methyl}piperazin-1-yl)carbonyl]-1,3,4-oxadiazol-2-yl}methyl)-4-methoxy-N,2,6-trimethylbenzenesulfonamide] | 100 to 1000 nM |

Continued, values first:

| IC50 | SMILES |
| --- | --- |
| < 10 nM | COc1cc(C)c(S(=O)(=O)N(Cc2nc(C(=O)N(C)C3CCCC(N4CCN(C)CC4)C3)co2)C2CC2)c(C)c1 (stereo not shown) [Ex 244, 2-({Cyclopropyl[(4-methoxy-2,6-dimethylphenyl)sulfonyl]amino}methyl)-N-methyl-N-[3-(4-methylpiperazin-1-yl)cyclohexyl]-1,3-oxazole-4-carboxamide] |
| < 10 nM | COc1cc(C)c(S(=O)(=O)N(Cc2nc(C(=O)N3CCN(Cc4c[nH]c(C)n4)CC3)co2)C2CC2)c(C)c1 [Ex 250, N-Cyclopropyl-4-methoxy-2,6-dimethyl-N-{[4-({4-[(2-methyl-1H-imidazol-4-yl)methyl]piperazin-1-yl}carbonyl)-1,3-oxazol-2-yl]methyl}benzenesulfonamide] |
| < 10 nM | COc1cc(C)c(S(=O)(=O)N(Cc2nc(C(=O)N3CCN(Cc4ccnc(C)c4)CC3)co2)C2CC2)c(C)c1 [Ex 252, N-Cyclopropyl-4-methoxy-2,6-dimethyl-N-{[4-({4-[(2-methylpyridin-4-yl)methyl]piperazin-1-yl}carbonyl)-1,3-oxazol-2-yl]methyl}benzenesulfonamide] |
| < 10 nM | COc1cc(C)c(S(=O)(=O)N(Cc2nc(C(=O)N3CCN(Cc4cccnc4N)CC3)co2)C2CC2)c(C)c1 [Ex 253, N-{[4-({4-[(2-Aminopyridin-3-yl)methyl]piperazin-1-yl}carbonyl)-1,3-oxazol-2-yl]methyl}-N-cyclopropyl-4-methoxy-2,6-dimethylbenzenesulfonamide] |
| < 10 nM | COc1cc(C)c(S(=O)(=O)N(Cc2nc(C(=O)N3CCN(Cc4cnc5ccccc5c4)CC3)co2)C2CC2)c(C)c1 [Ex 254, N-Cyclopropyl-4-methoxy-2,6-dimethyl-N-[(4-{[4-(quinolin-3-ylmethyl)piperazin-1-yl]carbonyl}-1,3-oxazol-2-yl)methyl]benzenesulfonamide] |
| < 10 nM | COc1cc(C)c(S(=O)(=O)N(C)Cc2nnc(C(=O)N3CCN(CC4CCN(C)CC4)CC3)o2)c(C)c1 [Ex 258, 4-Methoxy-N,2,6-trimethyl-N-{[5-({4-[(1-methylpiperidin-4-yl)methyl]piperazin-1-yl}carbonyl)-1,3,4-oxadiazol-2-yl]methyl}benzenesulfonamide] |
| < 10 nM | COc1cc(C)c(S(=O)(=O)N(C)Cc2nnc(C(=O)N3CCN(Cc4ccc(N5CCCC5)nc4)CC3)o2)c(C)c1 [Ex 261, 4-Methoxy-N,2,6-trimethyl-N-{[5-({4-[(6-pyrrolidin-1-ylpyridin-3-yl)methyl]piperazin-1-yl}carbonyl)-1,3,4-oxadiazol-2-yl]methyl}benzenesulfonamide trifluoroacetate] |
| < 10 nM | COc1cc(C)c(S(=O)(=O)N(C)Cc2nnc(C(=O)N(C)CCc3ccc(C4=NCCN4)cc3)o2)c(C)c1 [Ex 267, N-{2-[4-(4,5-Dihydro-1H-imidazol-2-yl)phenyl]ethyl}-5-({[(4-methoxy-2,6-dimethylphenyl)sulfonyl](methyl)amino}methyl)-N-methyl-1,3,4-oxadiazole-2-carboxamide] |

Source: patent US8623859B2, “Bradykinin B1 antagonists” (Evotec AG, priority 2008, dated 2014)
